Assay results from patent US11576901B2, “Methods for treating viral infection” (HOWARD UNIVERSITY, priority 2016, dated 2023).

Tests used:
HSV-1 = assay: Plaque forming assay, Hep-2 cell monolayers infected with HSV-1; format: cell-based; conditions: Hep-2 cells, 100 μM
Description: The ability of a virus to infect cells can be assessed using a plaque assay. In a plaque assay, an infected cell culture is grown under a nutrient gel. During culturing, the virus being study infects cells and replicates. However, the spread of virus to other cells is limited by the overlaying nutrient gel. As such, replicated virus released from one infected cell can only infect neighboring cells. The spread of virus amongst neighboring cells creates a plaque that can be visualized by staining. By counting the visible plaques, the amount of plaque forming units (pfu) per mL can be determined. If cells treated with a compound display a reduced amount of pfu compared to cells not treated with the compound after being infected with same amount of viral particles, then the reduction in pfu would have to be result of the ability of the […] virus. Thus, the ability of a compound in accordance with General Formula 1, including derivatives in accordance with any of General Formulae 1-1 to 1-20, to inhibit the ability of HSV-1 to proliferate can be assessed with a plaque assay.
Hep-2 cell monolayers were placed in well plates. The plated Hep-2 cells were treated with either DSMO as a control, 100 μM SD-29 or 100 μM SD29-12. A total of 6 well plates were prepared for each treatment condition. To each treated well plate an HSV-1 infecting solution comprising 1 mL of supernatants containing of the same amount of serially diluted HSV-1 particles were added. Accordingly, the treated well plates were infected with infection solutions containing the same amount of HSV-1 particles. After adsorption for 2 hours, the medium was removed and the treated cells were washed twice with serum-free DMEM and overlaid with phenol-free DMEM containing 5% FCS, 0.5% low-melting point agarose (GIBCO), and 1% penicillin-streptomycin. After either 0, 6, 12, 24 hours, the plaques present in each treated well plate were stained red and the number of plaques presented counted. Table 1 reports the mean plaque forming unit (pfu) determined for each treated well plate after averaging the number of pfu from the different plates receiving the same treatment.

[1] = test system: HIV1 modified pNL4-3.Luc.R-E-virus; assay: Western assay of HIV p24 gag expression in infected CEM T cells; format: cell-based; conditions: Western assay with HIV p24 antibody, FIG. 4
Source text: The ability of a compound in accordance with General Formula 1, including derivatives in accordance with General Formulae 1-1 to 1-20, or pharmaceutically acceptable salts thereof, to inhibit the expression of at least a portion of a virus genome containing an IRES sequence can be also be determined by assessing the expression of a native protein within a viral genome. In some embodiments, the ability of a compound or pharmaceutically acceptable salt to inhibit expression of native protein can be assessed by using antibodies for a protein normally expressed from the virus genome. For example, HIV p24 gag is a protein normally expressed by HIV1 that can be detected using the HIVI p24 antibody. Accordingly, compounds in accordance with General Formula 1, including derivatives in accordance with any of General Formulae 1-1 to 1-20, or pharmaceutically acceptable salts thereof, can be assessed for the ability to inhibit proliferation of the HIV1 by infecting CEM T cells with the HIV1 modified pNL4-3.Luc.R-E-virus and assessing the expression of HIV p24 gag with the HIV p24 antibody. […]
A compound or salt may be wrongly classified as capable of inhibiting expression of at least a portion of a virus genome containing an IRES sequence due to unequal loading of proteins within an assay. […] In some embodiments, equivalent protein loading can be assessed by ponceau staining. […]

Nn1c(-c2cccc(F)c2)n[nH]c1=S [5e, 4-amino-5-(3-fluorophenyl)-2,4-dihydro-3H-1,2,4-triazole-3-thione]
melting point: 220 °C

COc1ccc(-c2nnc(SCC(=O)O)n2N)cc1 [SD-29-12]
mean plaque forming unit (pfu) (HSV-1; 0 hpi): 0 pfu
mean plaque forming unit (pfu) (HSV-1; 6 hpi): 380 pfu
mean plaque forming unit (pfu) (HSV-1; 12 hpi): 3600 pfu
mean plaque forming unit (pfu) (HSV-1; 24 hpi): 2600000 pfu
expression of HIV p24 gag [1]: does not inhibit expression of HIV p24 gag
